# Laboratory results as given in patent publication US11331364B2, “Use for JNK inhibitor molecules for treatment of various diseases” (Xigen Inflammation Ltd., priority 2014, dated 2022).
# Square brackets hold non-standard residues; d marks the D form. Peptide text beside a SMILES is read from it.
# Columns and labels:
# hJNK3 = hJNK3 (Homo sapiens, UniProt P53779); experiment: hJNK3 | IC50; conditions: read-out: hJNK3 | IC50
# JNK = JNK and c-Jun activation after Aβ42 stress in PKR−/− primary cortical neurons; format: cell-based, mouse; conditions: 10 μM, 2 μM Aβ42
# Procedure: To obtain primary cortical neuronal cultures, E15.5 mice embryos were dissected in PBS (Phosphate Buffered Saline) 6% glucose, on ice. Embryos cortices were minced into small pieces and treated with PBS glucose trypsin (Sigma Aldrich, Saint-Louis, USA) for 20 min at 37° C. Dissociated cortical cells were cultured in Neurobasal media complemented with B27, Glutamax and penicillin-streptomycin (Gibco). Neurons were cultured at 37° C., 5% CO2 on pre-coated with poly-L-lysin (Sigma Aldrich) petri dishes. Neurons were cultured to maturity (7 days) before use.
# To induce […] stress 2 μM of Aβ1-42 (Thermo Fisher Scientific, Mass., USA) were used during 5 h on cortical neurons. Aβ42-1 inversed peptide (Thermo Fisher Scientific) was used as negative control. AP 1-42 and Aβ42-1 were dissolved in pure water and incubated at 37° C. for 48 h before use.
# To inhibit JNK, cortical neurons were pre-treated with 10 μM of XG-104 1 h before cell-stress treatment.
# For immunoblot analysis cells were lysed on ice in a lysis buffer containing […] NaPi pH 7.8, […] NaCl, 1% Triton, 0.5% DOC, 0.1% SDS, 10% glycerol, 0.1 μM calyculin A, 1 mM Na3VO4 and 1× of a protease inhibitor cocktail (Sigma Aldrich). Lysates were sonicated and centrifugated 10 min at 15000 g at 4° C. The supernatant protein concentration was determined with the Micro BCA protein assay kit (Thermo Scientific). Thirty micrograms of proteins were resolved on SDS-PAGE and transferred onto nitrocellulose membrane. After blocking with TBS 5% skim milk, the membranes were probed with primary antibodies to JNK full, c-Jun, PKR, eIF2α (Santa Cruz, Danvers, USA), pJNK (Millipore, Billerica, USA), phosphor eIF2a (Thermo Fisher Scientific), PARP and tubulin (Cell Signaling, Danvers, USA). IR Dyes 800 and 700 (Rockland Immunochemical Inc, Gilbertsville, USA) antibodies were used as secondary antibodies. Blots were reveled with Odyssey imaging system (LI-COR Biosciences, Lincoln, USA).
# Chain of hJNK3 (P53779 whole entry, looked up): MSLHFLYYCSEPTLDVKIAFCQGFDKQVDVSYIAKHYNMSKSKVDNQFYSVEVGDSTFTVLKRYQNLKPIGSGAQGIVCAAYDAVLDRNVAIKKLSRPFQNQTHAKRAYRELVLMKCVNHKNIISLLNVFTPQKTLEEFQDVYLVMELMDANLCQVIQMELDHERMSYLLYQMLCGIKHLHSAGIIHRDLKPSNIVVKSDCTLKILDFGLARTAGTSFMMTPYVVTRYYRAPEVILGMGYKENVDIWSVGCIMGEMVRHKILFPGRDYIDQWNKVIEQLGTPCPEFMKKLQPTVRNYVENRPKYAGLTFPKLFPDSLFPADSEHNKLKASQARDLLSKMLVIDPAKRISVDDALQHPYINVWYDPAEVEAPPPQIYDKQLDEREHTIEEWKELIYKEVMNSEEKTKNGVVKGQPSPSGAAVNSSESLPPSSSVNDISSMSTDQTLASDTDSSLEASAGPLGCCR
smiles,measurement,setting,value
"CC(C)C[C@H](NC(=O)[C@H](CC(N)=O)NC(=O)[C@H](CC(C)C)NC(=O)[C@@H](NC(=O)[C@@H](C)NC(=O)[C@@H]1CCCN1C(=O)[C@H](CCCNC(=N)N)NC(=O)[C@@H](CCCCN)NC(=O)[C@@H]1CCCN1C(=O)[C@H](CCCNC(=N)N)NC(=O)[C@@H](CCCNC(=N)N)NC(=O)[C@H](CCCNC(=N)N)NC(=O)[C@H](CCCNC(=N)N)NC(=O)[C@H](CCC(N)=O)NC(=O)[C@@H](CCCNC(=N)N)NC(=O)[C@H](CCCNC(=N)N)NC(=O)[C@H](CCCCN)NC(=O)[C@H](CCCCN)NC(=O)[C@H](N)CCCNC(=N)N)[C@@H](C)O)C(=O)N[C@H](Cc1ccccc1)C(N)=O [SEQ ID NO: 172, rKKRrQRRrRPkRPaTLNLf] (H-[dR]KKR[dR]QRR[dR]RP[dK]RP[dA]TLNL[dF]-NH2; N-terminus assumed)",IC50,hJNK3,102 nM
same,c-Jun activation,JNK; PKR−/− cultures,does not modify c-Jun activation
same,decrease of c-Jun protein expression,JNK; PKR−/− cultures,62%
same,JNK activation,JNK; PKR−/− neurons,−60%
